{
  "source": "patent US10201558B2",
  "about": "“Compositions of selenoorganic compounds and methods of use thereof” (Alltech, Inc., priority 2014, dated 2019)",
  "format_in_all_cases": "cell-based, human",
  "key": {"PEN2": {"test_system": "PEN2", "assay": "Western blot of PEN2 protein in IMR-32 cells", "conditions": "150 ppb, 24 hours", "protocol": "IMR-32 cells were seeded on 6-well plates and then treated with control and various compounds for 6 hours and 24 hours, as described above. After treatments, cells were rinsed with ice-cold PBS and lysed in ice-cold RIPA buffer containing complete proteinase and phosphatase inhibitors (Thermo-Fisher Scientific, Waltham, Mass.) on ice for 30 min Cell lysates were collected using a cell scraper and transfer pipette and then centrifuged at 12000×g for 30 min at 4° C. to remove the DNA pellet and obtain the protein extract. Protein levels in the supernatant of these cell lysates were determined using the Pierce Micro-BCA protein assay kit (Thermo Scientific-Piece Biotechnology, Rockford, Ill.) according to the manufacturer's protocol […]\nPositive signals on the membrane blots were detected using Amersham's enhanced chemiluminescence (ECL) Western Blotting Prime Detection reagents (GE healthcare Lifescience, Pittsburgh, Pa.). Images of these luminescence signals on the membrane blots were captured using the LI-COR Odyssey Fc Image system (Lincoln, Nebr.). […] Protein band densities in the Western blots were determined using the Li—COR Image studio software or NIH ImageJ software, and then normalized by ACTB protein level in each sample. […]"}, "[1]": {"test_system": "control KD and FOXO4KD IMR-32 cells", "assay": "Mitochondrial potential in control KD and FOXO4 knockdown IMR-32 cells", "conditions": "75 ppb and 150 ppb, 6 hours", "protocol": "(§1) IMR-32 cells were cultured on 12-well plates for 24 hours and then incubated with FOXO4 siRNA lentiviruses (SC-29650V, Santa Cruz) or control siRNA lentiviruses (sc-108080, Santa Cruz) in the presence of Polybrene (5 μg/ml, Santa Cruz) for 24 hours according to the manufacturer's protocol. These lentiviral siRNA-transfected cells were amplified in normal media for 3 days and then incubated with puromycin for 9-14 days to obtain the stable Control KD (stably transfected with the control siRNAs) and FOXO4KD (stably transfected with Foxo4 siRNAs) cells. These control and Foxo4 KD cells were subjected to cell survival, mitochondrial potential and RNA analysis.\nThe mitochondrial potential per cell in control lentiviral KD IMR-32 or IMR-32 FOXO4 knockdown (KD) cells was determined using the Bio-TeK Synergy HT Multi-Mode fluorescence microplate reader with the following modifications. To improve the attachment of IMR-32 cells to culture dishes, cell culture plates were precoated with 0.1% gelatin (Sigma, St. Louis, Mo.).\nTo reduce cell dislodgment, Mitotracker Orange and Hoechst 33342 fluorescent dyes (diluted in culture media) were directly added to each well after control or compound treatments were added. After dye incubation, cell culture media was carefully replaced with 1×PBS buffer for the quantitation analysis of fluorescence on the microplate reader. Eight samples per each treatment were examined for the above analysis, and the experiments were repeated at least five times. Data are presented as mean±sem of eight samples.\nTo exclude the possibility that unknown factors in sera may affect the action of Compound C in cultured IMR-32 cells, cells were cultured in serum-free media for 24 hours, treated with Compound C (diluted in serum-free media) for 6 hours, and then subjected to MT analysis. Data were normalized by the fluorescence intensities of stained cell nuclei. Mean±SEM, n=8. The * refers to a p value <0.05 when compared to the control lentiviral KD cells group (0 ppb)."}, "MAPK11": {"test_system": "MAPK11", "assay": "QRT-PCR of MAPK11 mRNA in control and FOXO4 KD IMR-32 cells", "conditions": "24 hours", "protocol": "as §1\n(§2) Human IMR-32 cells were seeded on gelatinized 6-well (6.5×10^5 cells/well) or 24-well (1.3×10^5 cells/well) plates. Cells were treated with control (0 ppb) or various compounds for 6 hours or 24 hours. Total RNA from these cells was isolated using Trizol (Invitrogen) according to the manufacturer's protocol, and then incubated with DNase I to remove any potential contaminated genomic DNA. Then RNA samples were subjected to real-time PCR analysis using the Applied-Bioscience's RT kit and predesigned Taqman probes (Invitrogen), as described previously (Lan et al EMBO J 2003). The mRNA levels of UCP1, UCP2, UCP3, SLC25A27 (UCP4), SLC25A14 (UCP5), PSEN1, Nicastrin, GSK3B, MAPK11-14, PPARG, APOE, RCAN1, RCAN1.1, G6PC, INSR, IGF1R and FOXO4 were measured. Three to six samples were analyzed in each treatment group. Data were normalized by Actin B (ACTB) or Glyceraldehyde Phosphate Dehydrogenase (GAPDH) mRNA levels in each sample and are presented as mean±SEM of 3-6 samples.\n(§3) Normal control cells and FOXO4KD cells were incubated with two doses of Compound C for 24 hours, and subjected to QRT-PCR analysis of the MAPK11-14 genes. The relative mRNA expression of all four MAPK genes in normal control IMR-32 cells was assessed. […] Data in Compound C-treated control and FOXO4 KD cells were normalized by their levels in control and FOXO4KD cells, respectively. Mean±SEM of indicated number of samples in the bar graphs. […]"}, "MAPK12": {"test_system": "MAPK12", "assay": "QRT-PCR of MAPK12 mRNA in control and FOXO4 KD IMR-32 cells", "conditions": "24 hours", "protocol": "as §1, §2, §3"}, "[2]": {"conditions": "FOXO4KD cells, 75 ppb and 150 ppb"}},
  "data": [
    {"smiles": "C[Se]C[C@H]1O[C@@H](n2cnc3c(N)ncnc32)C(O)C1O", "note": "(stereo in doubt) [Compound C, 5′-deoxy-5′-methylselenoadenosine]", "values": [
      {"measurement": "PEN2 protein levels", "setting": "PEN2", "result": "but not PEN2 proteins, were reduced"},
      {"measurement": "MT potential", "setting": "[1]; FOXO4KD cells, serum-containing media", "result": "no significant effect"},
      {"measurement": "MT potential", "setting": "[1]; FOXO4KD cells, serum-free media", "result": "no significant increase"},
      {"measurement": "MT potential", "setting": "[1]; normal control KD cells, serum-containing media", "result": "significantly enhanced"},
      {"measurement": "MT potential", "setting": "[1]; normal control KD cells, serum-free media", "result": "significantly stimulated"},
      {"measurement": "MAPK11 mRNA levels", "setting": "MAPK11; [2]", "result": "none of the mRNA levels of the four MAPK genes in FOXO4KD cells were significantly altered"},
      {"measurement": "MAPK11 mRNA levels", "setting": "MAPK11; control KD cells, 75 ppb", "result": "significant decrease"},
      {"measurement": "MAPK11 mRNA levels", "setting": "MAPK11; control KD cells, 150 ppb", "result": "significantly decreased"},
      {"measurement": "MAPK12 mRNA levels", "setting": "MAPK12; [2]", "result": "none of the mRNA levels of the four MAPK genes in FOXO4KD cells were significantly altered"},
      {"measurement": "MAPK12 mRNA levels", "setting": "MAPK12; control KD cells, 75 ppb", "result": "significant decrease"},
      {"measurement": "MAPK12 mRNA levels", "setting": "MAPK12; control KD cells, 150 ppb", "result": "significantly decreased"}
    ]}
  ]
}
